Assay [1] deals with HLA-A*0201 (Homo sapiens, UniProt P04439, /I218V/L300P/L318F/N151K/N90K/P208A/P217A/Q86G/Q94H/R138H/R169H/T345S). Kind of assay: REVEAL MHC molecule binding assay (ProImmune). Particulars: value of the unmodified old peptide listed beside the modified peptide ID.
The target in assay [2] is HLA-A*0201 (Homo sapiens, UniProt P04439, D140Y/D185E/D98H/E176V/E277Q/G131W/G231S/I119V/I121R/I166T/I218V/L300P/L318F/N151K/N90K/P208A/P217A/Q86G/Q94H/R138H/R169H/T345S). Nature of the assay: REVEAL MHC molecule binding assay (ProImmune). The settings on record: level of binding relative to pass/fail control binder designated 100%.
The subject of assay [3] is autologous responder cells (monocyte-depleted PBMC) from HLA-A*0201-negative donors. Nature of the assay: Induction of pentamer positive CD8+ T cells by peptide-pulsed HLA-A*0201-transfected moDC (Example 8). The format is cell-based, human. The method, then: MoDC transfected with HLA-A*0201 mRNA were harvested 18 hours after transfection and resuspended in 1-2 ml of serum-free DC-medium containing 50 μg/ml peptide, such as MART-1 or peptide #19. The cells were incubated at 37° C., 5% CO2 for 4 hours, then washed once in serum-free RPMI.
Stimulator and responder cells were seeded at a stimulator to responder (S:R) ratio of 1:10, with 3.0×10^6 responders per well in serum-free DC medium containing 10 ng/ml IL-7 (PeproTech EC Ltd.), 50 pg/ml IL-12 (PeproTech EC Ltd.), and PPD at 1 μg/ml.
On day 12 the responder cells were harvested and analyzed for the presence of pentamer positive cells. The cells were either sorted or restimulated.
Restimulation was done with autologous EBV-LCL transfected with HLA-A*0201 mRNA 12-24 hours prior to stimulation, harvested and resuspended in 1-2 ml of serum-free X-Vivo 20 (Cambrex) containing the same peptide as added on day 0 at 20 μg/ml, and incubated for 4 hours at 37° C., 5% CO2. Following incubation, the EBV-LCL were washed once in serum-free RPMI.
From day 12 of co-culture with stimulator cells, the responders were harvested, counted and analyzed for the presence of pentamer positive cells weekly. The responder cells were either restimulated, as described above, or the pentamer positive cells were sorted and expanded as described below.
Monocyte-derived dendritic cells (moDC) from HLA-A*0201-negative donors were transfected with HLA-A*0201 mRNA after maturation. 18-24 hours post-transfection the cells were pulsed with the peptides indicated in Table 2 for four hours, before co-culturing them with autologous responder cells (monocyte-depleted PBMC). On day 12 and day 19 and in some cases at day 26 of co-culture, the cells were harvested, stained with relevant peptide-MHC-pentamer and analyzed by flow cytometry. The percentage of pentamer positive cells was calculated by dividing the number of pentamer positive cells by the number of CD8+ cells. On day 12 and day 19, the cells were restimulated with autologous EBV-cells that were transfected with HLA-A*0201 mRNA and loaded for four hours with the relevant peptides indicated in Table 2.

Assay [4] relates to CD8+ T cells from HLA-A*0201 negative donors. Nature of the assay: Induction of A2/CD20 pentamer+ T cells by HLA-A*0201-transfected peptide-pulsed moDC (Example 10). The format is cell-based, human. The method, then: Mature moDCs were harvested 18 hours after transfection with HLA-A*0201 mRNA (HLA-A*0201 negative donors), or left untransfected (HLA-A*0201 positive donors), pulsed with 50 μg/ml peptide for 4 hours, irradiated (25Gy), washed and co-cultured with thawed, autologous, non-adherent cells at a ratio of 1:10 in CeliGro DC medium in the presence of 10 ng/ml IL-7 (PeproTech EC Ltd.), 50 pg/ml IL-12 (PeproTech EC Ltd.) and 1 μg/ml purified protein derivative-1 (gift from Prof. L. Sollid's lab, Rikshospitalet, Oslo) with the addition of 10 ng/ml IL-7 on day 7. Cells were analyzed for the presence of pentamer^+ cells, harvested and re-stimulated on day 12 with HLA-A*0201-transfected, peptide-pulsed autologous EBV-LCL. Cells were co-cultured in X-vivo 20 (Lonza, Verviers, Belgium) with 5% pooled human serum, 10 U/ml IL-2 (R&D systems, Minneapolis, Minn.) was added on day 14 and the cells harvested for cell sorting day 19.
Harvested cells were stained with A2/CD20 pentamer, fluorotag and anti-CD8 according to the manufacturers' instructions. Sorting was performed by flow cytometry (FACS Aria Cell sorter, BD Biosciences, San Jose, Calif.) or by magnetic beads to a purity of >98%. Pentamer^+ cells labelled with fluorotag conjugated to PE were isolated using MACS anti-PE MicroBeads (Miltenyi Biotec, Bergisch Gladbach, Germany) followed by separation over two subsequent MACS MS Columns (Miltenyi Biotec).

Assay [5] relates to myelo-monocytic leukemia cell line THP-1. Nature of the assay: IFN-γ production and CD107a/b mobilization, peptide-loaded targets. The assay is classed as cell-based, human. Particulars: THP-1 loaded with peptide and washed, p=0.016, n=4.

The values that follow come from patent US20110142842A1, “POLYPEPTIDES” (Medinnova AS, priority 2007, published 2011).

Consider “SVDPRIANV [82] (homo sapiens) [Peptide 82, from MPO]”, for which the “% Pass/fail (Old Peptide)” value in the assay with HLA-A*0201 [1] amounted to 295.4%. For the same sequence, the “% Pass/fail control” value with HLA-A*0201 [2] stood at 295.4%. Also, the “Day 12 % pent+/CD8+” value in assay [3] (day 12 of co-culture) is reported as 0.04%. In assay [3] (day 19 of co-culture, after restimulation), the “Day 19 % pent+/CD8+” value stood at 0.19%. Also, in assay [3] (donors with positive response / donors tested, day 12), the “Day 12 Donors” value was 1/2. Besides, the “Day 19 Donors” value in assay [3] (donors with positive response / donors tested, day 19) was 1/2.

Turning to “SLFLGILSV (homo sapiens) [Peptide 19, from CD20]”, in assay [4] (day 12), the “donors with positive cells” value is 5 of 6, the “median frequency of pentamer positive cells of CD8+ T cells” value turned out to be 0.19% and the “range of frequency of pentamer positive cells of CD8+ T cells” value is on record as 0-0.31%. In assay [4] (day 19), the “donors with pentamer positive cells” value is reported as 6/6. Besides, in assay [4] (day 19, after re-stimulation), the “median frequency of pentamer positive cells of CD8+ T cells” value is given as 0.57% and the “range of frequency of pentamer positive cells of CD8+ T cells” value is recorded as 0.12-2.79%. Also, in assay [5], the “peptide concentration at which increase in frequency of activated T cells reached statistical significance” value is given as 100 nM.
